One data set deals with WT mice. The data set is described as follows: Invasive evaluation of +dP/dt (LV pressure catheter). The data set is classed as in vivo, mouse. The note with it: 30 mg/kg and 100 mg/kg bolus IV, 5 minutes between doses. The method, then:
Invasive evaluation.—Once a dose range was established, a separate group of WT mice were anesthetized with an intraperitoneal injection of ketamine (50 μg/g) and inactin (thiobutabarbital, 100 μg/g, Sigma, Mass.). A tracheotomy was performed (PE-90), and body temperature was monitored and maintained with a feedback-controlled heating table. The right femoral artery was cannulated with fluid-filled polyethylene tubing for measurement of blood pressure and connected to a low compliance pressure transducer (COBE Cardiovascular, Arvada, Colo.). The right femoral vein was cannulated for delivery of drugs. A high fidelity, 1.2-French SciSence pressure catheter (SciSence, London, ON, Canada) was inserted into the right carotid artery and advanced into the left ventricle to monitor cardiac performance. ECG leads were placed on the right and left arms, and left leg and connected to a BIOAmp (AD Instruments, Colorado Springs, Colo.). For carotid blood flow measurements, the left carotid artery was isolated and fitted with a 0.5-PSB perivascular flow probe connected to a TS420 flowmeter (Transonic Systems, Ithaca, N.Y.). […] Hemodynamic variables were collected and analyzed using a MacLab 4/S system (AD Instruments, Colorado Springs, Colo.) and Chart software.

The test system of another data set is TRPV2^−/− mice. Description: Contractility by echo after IP probenecid in TRPV2−/− mice. The following applies: 100 mg/kg IP. The data set is classed as in vivo, mouse. Here is the method:
(§1) WT, TRPV2^+/−, and TRPV2^−/− mice were monitored by echo for 30 minutes after injection as described below. Echocardiography—All echocardiographic studies were performed with a Vevo 2100 Ultrasound system (Visualsonics, Toronto Calif.) with an MS400 probe (30 MHz centerline frequency) and were post-processed at a separate workstation with Vevostrain software (Vevo 2100, v1.1.1 B1455, Visualsonic, Toronto, Canada). Images were obtained from PSLAX and short axis (SAX) views at depths between 2 and 10 mm in both M-mode and B-mode. All studies on mice exposed to I/R injury included M-mode, B-mode in PSLAX and strain imaging in SAX. While for the contractility studies, only M-mode measurements were obtained from the PSLAX. Strain imaging was performed from the B-mode images and regional radial strain and circumferential displacement were measured by regional wall and summed average from the SAX images. From the M-mode images, left ventricular cavity size and wall thickness was measured and the ejection fraction (EF) and fractional shortening (FS) calculations were obtained using the Vevo software. […] In addition, the average change from baseline for each time point between 5 and 30 minutes was determined for each mouse, with measurements being taken every 5 minutes. […]

For the next data set, the system named is HL-1 cells. Description: Imaging and measurement of Ca2+ fluorescence in HL-1 cells. It is filed as cell-based. The method, then: Imaging and measurement of Ca2+ fluorescence.—HL-1 cells were obtained as described above. Dissociated cells were plated on glass cover-slip (GG-25-polylysine #1, Neuvitro, Calif.) placed inside each well of six-well plates (BD Falcon). Acquisition of images were done at 40-65 Hz by using LSM 510 Meta system equipped with the inverted Axiovert 200 M BP (Carl Zeiss Microscopy, LLC, Thornwood, N.Y.) and LSMS Software. Image acquisition was done with Plan-Apochromat 40×/water with frame size of 512 (X) and 256(Y). To optimize the speed of acquisition, the acquisition area was limited to a few cells. […] Peak fluorescence before perfusion (F0) and that after perfusion (F) were determined manually after acquisition of images from the saved LSM files. Circular areas within the cytosol of each cell of the saved images over the entire duration of respective experiments were used to determine changes in fluorescence before and after perfusion. Normalized fluorescence, determined as a quotient of F/F0, was used as a variable to compare the relative changes in fluorescence at different incremental concentrations during statistical analyses. […]

The subject of data set [1] is subjects with uncomplicated congestive heart failure. The following applies: 2 g/day or 4 g/day orally over several days; cited from earlier work.
Another data set relates to TRPV2^+/− mice. The data set is described as follows: Contractility by echo after IP probenecid in TRPV2+/− mice. The data set is classed as in vivo, mouse. The note with it: 100 mg/kg. Here is the method:
as §1

Data set [2] has as its system mice with and without I/R injury. The following applies: mouse, in vivo, po, 6.33 mg/kg/day. Here is the method:
The hearts were removed, rinsed with PBS, fixed with 3.7% buffered formaldehyde (after 30 minutes the buffer was changed) and dehydrated (hearts were placed in 70% ethanol after 18-24 hours). The samples were embedded in paraffin, sectioned into thicknesses of 6 μm, each 10 μm apart, and 2 heart sections were placed onto each slide. The slides were prepared using the in situ apoptosis detection kit, CardioTACS (Trevigen, Gaithersburg, Md.) according to the manufacturer's instructions. After staining, the slides were placed on a microscope (Olympus 1×71) and the number of apoptotic cells was counted by two separate and blinded readers in 5 fields of view for each heart section. The total number of cells was also determined for the same field, and the apoptotic cells were calculated to be a percentage of the total cells.
The water was changed twice a week and the volume was measured before and after consumption to determine the approximate dose. The mice were housed 2 to a cage for a more accurate assessment of total dose administered.

The next data set concerns mice after I/R injury. Description: Ischemia/Reperfusion followed by probenecid bolus (echocardiography). It is filed as in vivo, mouse. The method, then: Ischemia/Reperfusion methods—Mice were anesthetized with sodium pentobarbital and the heart exposed through a left thoracotomy at the level of the fourth intercostal space. The mice were intubated and placed on a mini-ventilator (Harvard apparatus, Holliston, Mass.). A loop occluder was placed around the left anterior descending artery (LAD), and tightened, occluding it for either 30 minutes or 45 minutes. After surgery, the thorocotomy was sutured in layers, and the animal was allowed to recover. Echocardiography methods—All echocardiographic studies were performed as previously described for Example 1. […] The mice were imaged at 5 minute intervals for a total of 30 minutes.

Consider one compound from patent US10806711B2 (priority 2011, dated 2020).

“Also recorded” adds a separate entry of the source.

Regarding `CCCN(CCC)S(=O)(=O)c1ccc(C(=O)O)cc1` [probenecid], the “peak +dP/dt in vivo” value with WT mice is reported as “rapidly increased”. The “cardiac response (contractility) during 30 minutes of echocardiogram” value with TRPV2^−/− mice is reported as “no discernable cardiac response; also recorded: absolutely no change in function”. In the data set on HL-1 cells (higher probenecid concentrations (up to 10^−4)), the “median peak cytosolic fluorescence after vs before perfusion” value is “significantly higher”. Moreover, the “median peak cytosolic fluorescence before vs after perfusion” value with HL-1 cells (probenecid 10^−8) is “No significant differences”. For the same compound, the diuretic effect entry in data set [1] is “strong diuretic effect”. Besides, the “decrease in contractility response versus WT” value with TRPV2^+/− mice is given as “approximately 50%”. Besides, the “apoptosis in healthy mice” value in data set [2] is given as “did not induce significant apoptosis”. In the data set on mice after I/R injury (100 mg/kg IP bolus, all treated mice), the “EF after I/R injury” value is “statistically significant increase in EF”. In the data set with mice after I/R injury (100 mg/kg IP, 10 minutes, mice with initial EF 50-60%), the “change in EF at peak effect” value was 19.72±4.10%. For the same compound, in the data set on mice after I/R injury (100 mg/kg IP, mice with initial EF 50-60%), the “time of peak effect on EF” value amounted to 10 min. The contractility over time entry in the data set on mice after I/R injury (100 mg/kg IP, mice with lower initial EFs (40-50%)) is recorded as “continued to enhance contractility throughout the full 30-minute experiment”.
